# Measured values reported in US20140121260A1, “NOVEL CONJUGATES OF POLYUNSATURATED FATTY ACIDS WITH AMINES AND THERAPEUTIC USES THEREOF” (MedWell Laboratories Ltd., priority 2006, published 2014).
# Tests used:
# ovine COX-2 = molecular target: T1, ovine COX-2 (Ovis aries, UniProt P79208); assay: In vitro COX-2 inhibition, enzyme immuno assay (EIA) kit; format: biochemical; conditions: for IC50: ovine COX-2, EIA, duplicate determinations; for Ration (COX ½): ratio of COX-1 IC50 to COX-2 IC50
# T1 construct: purchased Cayman Chemical 560101
# T1 sequence (P79208 17-603): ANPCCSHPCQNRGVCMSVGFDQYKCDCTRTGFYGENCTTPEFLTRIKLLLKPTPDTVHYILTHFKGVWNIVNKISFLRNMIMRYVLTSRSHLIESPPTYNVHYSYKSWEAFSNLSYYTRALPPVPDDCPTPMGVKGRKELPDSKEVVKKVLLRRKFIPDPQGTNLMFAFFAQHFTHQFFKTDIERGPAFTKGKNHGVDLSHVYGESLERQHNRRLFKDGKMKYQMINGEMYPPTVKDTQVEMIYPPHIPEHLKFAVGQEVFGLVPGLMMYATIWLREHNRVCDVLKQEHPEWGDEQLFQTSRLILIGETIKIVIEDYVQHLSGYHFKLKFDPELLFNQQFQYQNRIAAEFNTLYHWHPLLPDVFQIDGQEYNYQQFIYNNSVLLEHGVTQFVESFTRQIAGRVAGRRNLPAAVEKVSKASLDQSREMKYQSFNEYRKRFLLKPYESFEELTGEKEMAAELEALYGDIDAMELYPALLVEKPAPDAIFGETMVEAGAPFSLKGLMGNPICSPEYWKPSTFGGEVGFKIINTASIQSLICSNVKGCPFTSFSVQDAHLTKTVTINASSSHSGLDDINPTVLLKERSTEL
# Procedure: (§1) The exemplary conjugates shown in FIGS. 5 A-E, to which reference is now made, were tested for inhibition of COX-1 and COX-2 to in-vitro activity The ability of the test compounds listed in the Table 1 to inhibit ovine COX-1 and COX-2 (IC50 values, […]) was determined using an enzyme immuno assay (EIA) kit catalog number 560101, Cayman Chemical, Ann Arbor, Mich., USA) according to the manufacturers instructions.
# (§2) Cyclooxygenase catalyzes the first step in the biosynthesis of arachidonic acid (AA) to PGH2. PGF2α, produced from PGH2 by reduction with stannous chloride, is measured by enzyme immunoassay (ACETM competitive EIA).
# (§3) Stock solutions of test compounds were dissolved in a minimum volume of DMSO. Briefly, to a series of supplied reaction buffer solutions (960 μL, 0.1M Tris-HCl pH 8.0 containing 5 mM EDTA and 2 mM phenol) with either COX-1 or COX-2 (10 μL) enzyme in the presence of heme (10 μL) were added 10 μL of various concentrations of test drug solutions (0.01, 0.1, 1, 10, 50, and 100 μM in a final volume of 1 mL). These solutions were incubated for a period of 5 min at 37° C. after which 10 μL of AA (100 μM) solution were added and the COX reaction was stopped by the addition of 50 μL of 1M HCl after 2 min. PGF2α, produced from PGH2 by reduction with stannous chloride was measured by enzyme immunoassay.
# (§4) This assay is based on the competition between PGs and a PG-acetylcholinesterase conjugate (PG tracer) for a limited amount of PG antiserum. The amount of PG tracer that is able to bind to the PG antiserum is inversely proportional to the concentration of PGs in the wells since the concentration of PG tracer is held constant while the concentration of PGs varies. The concentration of the test compound causing 50% inhibition (IC50, μM) was calculated from the concentration-inhibition response curve (duplicate determinations).
# ovine COX-1 = molecular target: T2, ovine COX-1 (Ovis aries, UniProt P05979); assay: In vitro COX-1 inhibition, enzyme immuno assay (EIA) kit; format: biochemical; conditions: ovine COX-1, EIA, duplicate determinations
# T2 construct: purchased Cayman Chemical 560101
# T2 sequence (P05979 25-600): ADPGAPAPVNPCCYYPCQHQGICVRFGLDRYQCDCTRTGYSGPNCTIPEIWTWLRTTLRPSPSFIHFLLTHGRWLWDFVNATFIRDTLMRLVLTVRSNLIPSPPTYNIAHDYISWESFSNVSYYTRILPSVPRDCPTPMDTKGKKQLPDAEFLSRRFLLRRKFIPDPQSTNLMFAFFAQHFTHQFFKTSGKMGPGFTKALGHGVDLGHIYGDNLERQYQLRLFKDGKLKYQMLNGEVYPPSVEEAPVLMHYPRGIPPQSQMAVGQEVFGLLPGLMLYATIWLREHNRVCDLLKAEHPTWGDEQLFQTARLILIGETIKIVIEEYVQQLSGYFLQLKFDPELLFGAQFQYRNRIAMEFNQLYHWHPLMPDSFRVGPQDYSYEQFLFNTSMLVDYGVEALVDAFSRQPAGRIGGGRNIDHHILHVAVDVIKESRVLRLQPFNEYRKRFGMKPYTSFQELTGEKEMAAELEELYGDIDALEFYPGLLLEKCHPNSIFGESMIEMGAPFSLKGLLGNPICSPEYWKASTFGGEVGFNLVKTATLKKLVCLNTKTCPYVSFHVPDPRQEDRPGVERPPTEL
# Procedure: as §1, §2, §3, §4
# [1] = test system: carrageenin-induced edema of the hind paw; assay: Carrageenin-induced paw edema in rats; conditions: for Swelling volume: rat hind paw; for decrease in the edema size: after 1 h, versus control
# Procedure: Sprague dawley rats (150-200 g) were used. Edema was induced by a single sub-plantar injection of carrageenin (1 mg/paw) into the left hind paw of the rat under light ether anesthesia. The total volume injected was always 0.1 ml. […] The results were expressed either as the increase in paw volume (ml) calculated by subtracting the basal volume or by calculating the area under the time-course curve (AUC; ml h) for each group.
# [2] = test system: inflammatory bowel disease IBD (ulcerative colitis); assay: Tri-nitrobenzene sulfunic acid induced ulcerative colitis in rats, MPO activity in colon; format: in vivo, Sprague dawley rats; conditions: 25 mg/kg rectally, inflamed area of the colon, FIG. 7
# Procedure: The exemplary RNX006 compound shown in FIG. 5 F, to which reference is now made, was tested for the effect on the inflammatory bowel disease IBD (ulcerative colitis) in rats as follows. Male Sprague dawley rats were used in this study. Briefly, ulcerative colitis was induced by tri-nitrobenzene sulfunic acid as described in the literature. Rats were divided into 4 groups, (−) sham (healthy, (+) control ulcerative colitis (UC, not treated), UC treated with RNX006 (25 mg/kg), and UC treated with 5-amino salicylic acid (5-ASA 25 mg/kg). RNX006 and 5-ASA were administered rectally during all the period of the experiment. At the end of the experiment animals were sacrificed and the colon was isolated to test the severity of the inflammation. The severity of the inflammation was tested by measurement of the myeloperoxidase activity (MPO activity) in the inflamed area of the colon.
structure (smiles),measurement,setting,value
CCCCCCCC/C=C/CCCCCCCC(=O)N1CC(O)CC1C(=O)O (stereo not drawn) [RNX001],IC50,ovine COX-2,1.3 µM
same,Ration (COX ½),ovine COX-2,55.7
same,IC50,ovine COX-1,72.5 µM
same,Swelling volume,[1]; 1 hr after carrageenin,1.1 ± 0.09 mL
same,Swelling volume,[1]; 2 hr after carrageenin,1.3 ± 0.13 mL
same,Swelling volume,[1]; 3 hr after carrageenin,1.9 ± 0.1 mL
same,Swelling volume,[1]; 4 hr after carrageenin,1.8 ± 0.13 mL
same,decrease in the edema size,[1],31%
CCCCC/C=C/C/C=C/CCCCCCCC(=O)N1CC(O)CC1C(=O)O (stereo not drawn) [RNX002],IC50,ovine COX-2,0.51 µM
same,Ration (COX ½),ovine COX-2,103.3
same,IC50,ovine COX-1,52.7 µM
same,Swelling volume,[1]; 1 hr after carrageenin,0.9 ± 0.06 mL
same,Swelling volume,[1]; 2 hr after carrageenin,1.6 ± 0.09 mL
same,Swelling volume,[1]; 3 hr after carrageenin,2.3 ± 0.11 mL
same,Swelling volume,[1]; 4 hr after carrageenin,2.1 ± 0.13 mL
same,decrease in the edema size,[1],43.4%
CC/C=C\C/C=C/C/C=C/C/C=C/C/C=C/CCCC(=O)N1CC(O)CC1C(=O)O (stereo not drawn) [RNX004],IC50,ovine COX-2,0.085 µM
same,Ration (COX ½),ovine COX-2,464.11
same,IC50,ovine COX-1,39.5 µM
CC/C=C\C/C=C/C/C=C/C/C=C/C/C=C/C/C=C/CCC(=O)N1CC(O)CC1C(=O)O (stereo not drawn) [RNX005],IC50,ovine COX-2,0.081 µM
same,Ration (COX ½),ovine COX-2,528.68
same,IC50,ovine COX-1,42.8 µM
CCCCC/C=C/C/C=C/C/C=C/CCCCC(=O)NCCS(=O)(=O)O [RNX006],MPO activity relatively to IBD rats treated with 5-ASA,[2],even a lower MPO activity
same,MPO activity relatively to the (+) control of non-treated IBD rats,[2],significantly lower MPO activity
